Test results reported in ChEMBL document CHEMBL1201862, “PubChem BioAssay data set” (2004).
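Cultured in 96-well plates, cells were exposed to test compound for 48 hours across five concentrations. GI50: concentration for 50% inhibition of growth.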 Active and inactive are the calls of the source. No stated cut-off is given here; in the data, active = GI50 up to about 1.1 µM and inactive = higher.

How the values were obtained:
Assay in all cases: DTP human tumour cell line panel, 48 h
RXF 393 = test system: RXF 393
PC-3 = test system: PC-3
HCC 2998 = test system: HCC 2998
MDA-MB-435 = test system: MDA-MB-435
M14 = test system: M14
SF-295 = test system: SF-295
ACHN = test system: ACHN
TK-10 = test system: TK-10
MOLT-4 = test system: MOLT-4
HOP-92 = test system: HOP-92
Hs-578T = test system: Hs-578T
CCRF-CEM = test system: CCRF-CEM
OVCAR-8 = test system: OVCAR-8
HL-60 = test system: HL-60
UACC-257 = test system: UACC-257
UO-31 = test system: UO-31
HCT-116 = test system: HCT-116
A549 = test system: A549
BT-549 = test system: BT-549
Malme-3M = test system: Malme-3M

Measured: GI50

COC(=O)C(/C(=N/N)C(=O)Nc1cccc(O)c1)c1nc2ccccc2nc1O (configuration not stated)
inactive: RXF 393 > 100 µM | PC-3 > 100 µM | HCC 2998 > 100 µM | MDA-MB-435 > 100 µM | M14 > 100 µM | SF-295 > 100 µM | ACHN > 100 µM | TK-10 > 100 µM | MOLT-4 > 100 µM | HOP-92 > 100 µM | Hs-578T > 100 µM | CCRF-CEM > 10 µM | OVCAR-8 > 100 µM | HL-60 > 100 µM | UACC-257 > 100 µM | UO-31 > 100 µM | HCT-116 > 100 µM | A549 > 100 µM | BT-549 > 100 µM

CCc1nc(N)nc(N)c1-c1ccc(Cl)c([N+]#N)c1
inactive: RXF 393 > 100 µM | PC-3 61.7 µM | MDA-MB-435 38.7 µM | M14 65.5 µM | SF-295 39 µM | ACHN 39.4 µM | Malme-3M > 100 µM | TK-10 > 100 µM | MOLT-4 23.1 µM | HOP-92 > 100 µM | Hs-578T 46.6 µM | OVCAR-8 66.8 µM | HL-60 40.8 µM | UACC-257 > 100 µM | UO-31 78.3 µM | HCT-116 41.8 µM | A549 20.6 µM | BT-549 > 100 µM

COc1nc2ncc([C@@H](OC(C)=O)[C@@H](COC(C)=O)OC(C)=O)nc2c(=O)n1C
inactive: RXF 393 > 100 µM | PC-3 > 100 µM | MDA-MB-435 > 100 µM | M14 > 100 µM | SF-295 > 100 µM | ACHN > 100 µM | Malme-3M > 100 µM | TK-10 > 100 µM | MOLT-4 > 100 µM | HOP-92 > 100 µM | Hs-578T > 100 µM | CCRF-CEM 58.1 µM | OVCAR-8 > 100 µM | HL-60 24.3 µM | UACC-257 > 100 µM | UO-31 > 100 µM | HCT-116 > 100 µM | A549 > 100 µM | BT-549 > 100 µM

CC(=O)Oc1cccc2c1C(=O)c1c(OC(C)=O)cc(C)cc1C2=O
inactive: RXF 393 28.2 µM | PC-3 26.1 µM | HCC 2998 61.7 µM | MDA-MB-435 43.4 µM | M14 81.7 µM | SF-295 29.1 µM | ACHN 78.3 µM | Malme-3M 17.1 µM | TK-10 > 100 µM | MOLT-4 26.6 µM | HOP-92 70.6 µM | Hs-578T 46.6 µM | CCRF-CEM 18.8 µM | OVCAR-8 39.8 µM | HL-60 23.6 µM | UACC-257 > 100 µM | HCT-116 33.6 µM | A549 47.5 µM | BT-549 61.1 µM

CCCCn1cnnc1NS(=O)(=O)c1cc(C)c(Cl)cc1SCC(=O)O
inactive: RXF 393 > 10 µM | PC-3 > 10 µM | HCC 2998 > 10 µM | MDA-MB-435 > 10 µM | M14 > 10 µM | SF-295 > 10 µM | ACHN > 10 µM | Malme-3M > 10 µM | TK-10 > 10 µM | MOLT-4 > 10 µM | Hs-578T > 10 µM | CCRF-CEM > 10 µM | OVCAR-8 > 10 µM | HL-60 > 10 µM | UACC-257 > 10 µM | UO-31 > 10 µM | HCT-116 > 10 µM | A549 > 10 µM | BT-549 > 10 µM

O=c1[nH]cnc2c1sc1nc3ccccc3n12
inactive: RXF 393 16.3 µM | PC-3 88.5 µM | HCC 2998 73.3 µM | MDA-MB-435 > 100 µM | M14 > 100 µM | SF-295 > 100 µM | ACHN > 100 µM | Malme-3M > 100 µM | TK-10 70 µM | MOLT-4 90.6 µM | HOP-92 > 100 µM | Hs-578T 51.6 µM | CCRF-CEM 55.6 µM | OVCAR-8 > 100 µM | UACC-257 > 100 µM | UO-31 42.3 µM | HCT-116 70.3 µM | A549 > 100 µM | BT-549 > 100 µM

CC(=O)O[C@H]1CC[C@@]2(C)C(=CC[C@@H]3[C@@H]2CC[C@]2(C)Nc4c(cnn4S(C)(=O)=O)C[C@@H]32)C1
inactive: RXF 393 18.1 µM | PC-3 39.1 µM | HCC 2998 > 100 µM | MDA-MB-435 46.8 µM | M14 27.8 µM | SF-295 62.2 µM | Malme-3M > 100 µM | MOLT-4 20.1 µM | HOP-92 71.3 µM | Hs-578T 62.4 µM | CCRF-CEM 37.2 µM | OVCAR-8 > 100 µM | HL-60 23.4 µM | UO-31 76.7 µM | BT-549 23.3 µM

Cc1cc(NS(=O)(=O)c2ccc(/N=[N+](\[O-])c3ccc(S(=O)(=O)Nc4cc(C)on4)cc3)cc2)no1
inactive: RXF 393 > 100 µM | PC-3 > 100 µM | MDA-MB-435 > 100 µM | M14 > 100 µM | SF-295 > 100 µM | ACHN > 100 µM | Malme-3M > 100 µM | TK-10 > 100 µM | MOLT-4 > 100 µM | HOP-92 > 100 µM | Hs-578T > 100 µM | CCRF-CEM > 100 µM | OVCAR-8 > 100 µM | HL-60 > 100 µM | UACC-257 > 100 µM | UO-31 > 100 µM | HCT-116 > 100 µM | A549 > 100 µM | BT-549 > 100 µM

COc1cc([C@@H]2c3cc4c(cc3[C@@H](c3c(O)cc(O)c5c3O[C@H](c3ccc(O)c(O)c3)[C@H](OC(=O)c3cc(O)c(O)c(O)c3)C5)[C@H]3COC(=O)[C@H]23)OCO4)cc(OC)c1O
inactive: RXF 393 59.4 µM | PC-3 42.8 µM | HCC 2998 33.8 µM | MDA-MB-435 22.6 µM | M14 23.4 µM | SF-295 39.3 µM | ACHN 53.7 µM | Malme-3M > 100 µM | TK-10 92.3 µM | MOLT-4 33.7 µM | HOP-92 58.2 µM | Hs-578T 96.4 µM | CCRF-CEM 24.4 µM | OVCAR-8 35.6 µM | HL-60 19.5 µM | UACC-257 > 100 µM | HCT-116 23.7 µM | A549 29.4 µM | BT-549 > 100 µM

COc1ccc(CCNC(=O)CCc2ccccc2CO)cc1OC
inactive: RXF 393 > 100 µM | PC-3 > 100 µM | HCC 2998 > 100 µM | MDA-MB-435 > 100 µM | M14 > 100 µM | SF-295 > 100 µM | ACHN > 100 µM | TK-10 > 100 µM | MOLT-4 > 100 µM | HOP-92 > 100 µM | Hs-578T > 100 µM | CCRF-CEM > 100 µM | OVCAR-8 > 100 µM | HL-60 > 100 µM | UACC-257 > 100 µM | UO-31 > 100 µM | HCT-116 > 100 µM | A549 > 100 µM | BT-549 > 100 µM

COc1cc(/N=C(\N)N=C(N)N)c2ncccc2c1
inactive: RXF 393 > 100 µM | PC-3 > 100 µM | HCC 2998 > 100 µM | MDA-MB-435 > 100 µM | M14 > 100 µM | SF-295 > 100 µM | ACHN > 100 µM | Malme-3M 44.7 µM | TK-10 > 100 µM | HOP-92 67 µM | Hs-578T 98.4 µM | OVCAR-8 > 100 µM | UACC-257 > 100 µM | UO-31 > 100 µM | HCT-116 > 100 µM | A549 > 100 µM | BT-549 78.5 µM

NNC1=N/C(=C\c2ccccc2O)C(=O)N1
inactive: RXF 393 49.3 µM | PC-3 49.2 µM | MDA-MB-435 61.4 µM | M14 27.2 µM | SF-295 36 µM | ACHN 30.9 µM | Malme-3M 43.9 µM | TK-10 60.1 µM | MOLT-4 21.5 µM | HOP-92 > 100 µM | Hs-578T > 100 µM | CCRF-CEM 9.12 µM | OVCAR-8 27.6 µM | HL-60 14.6 µM | UACC-257 49.2 µM | UO-31 16.6 µM | HCT-116 34.4 µM | A549 30.9 µM | BT-549 37.9 µM

COC(=O)C(Cc1cn(C(C)n2cc(CC(NC(C)=O)C(=O)OC)c3ccccc32)c2ccccc12)NC(C)=O (configuration not stated)
inactive: PC-3 > 100 µM | HCC 2998 > 100 µM | MDA-MB-435 > 100 µM | M14 > 100 µM | SF-295 60.7 µM | Malme-3M 13.7 µM | TK-10 > 100 µM | MOLT-4 34 µM | HOP-92 52.5 µM | Hs-578T 12.5 µM | CCRF-CEM 42.5 µM | UACC-257 > 100 µM | UO-31 66.4 µM | HCT-116 > 100 µM | A549 > 100 µM | BT-549 > 100 µM

COC(=O)C1c2c(c3ccccc3n2C(=O)OC)CCN2CCC1C(S(=O)(=O)c1ccccc1)C2=O (configuration not stated)
inactive: RXF 393 89.1 µM | PC-3 > 100 µM | MDA-MB-435 > 100 µM | M14 > 100 µM | SF-295 > 100 µM | Malme-3M > 100 µM | TK-10 > 100 µM | MOLT-4 40.5 µM | HOP-92 > 100 µM | Hs-578T > 100 µM | CCRF-CEM > 100 µM | OVCAR-8 > 100 µM | HL-60 90.6 µM | UACC-257 > 100 µM | UO-31 > 100 µM | HCT-116 > 100 µM | A549 > 100 µM | BT-549 > 100 µM

COC(=O)/C=C1\SC2(O\C1=N/c1ccccc1)C1CC3CC(C1)CC2C3 (configuration not stated)
inactive: RXF 393 > 100 µM | PC-3 > 100 µM | MDA-MB-435 > 100 µM | SF-295 > 100 µM | ACHN > 100 µM | TK-10 > 100 µM | MOLT-4 > 100 µM | HOP-92 > 100 µM | Hs-578T > 100 µM | CCRF-CEM > 100 µM | OVCAR-8 > 100 µM | HL-60 > 100 µM | UACC-257 > 100 µM | UO-31 > 100 µM | HCT-116 > 100 µM | A549 > 100 µM | BT-549 > 100 µM
